Assays:
RPMI8226 = assay: Anti-proliferative assay; type: cell-based; settings: Homo sapiens, RPMI-8226; RPMI8226, MM; 72 hours, CellTiter-Glo
Description: (§1) Cells were grown in 96-well culture plates (3000-4000/well). […] Cell proliferation was determined after treatment with compounds for 72 hours. Cell viability was measured using the CellTiter–Glo Assay Kit (Promega, USA), according to the manufacturer's instructions, and luminescence was measured in a multi-label reader (Envision, PerkinElmer, USA). Data were normalized to control groups (DMSO) and represented by the mean of three independent measurements with standard error <20%. GI50 values were calculated using Prism 5.0 (GraphPad Software, San Diego, CA).

AMO-1 = assay: Anti-proliferative assay; type: cell-based; settings: Homo sapiens, AMO1; AMO-1, MM; 72 hours, CellTiter-Glo
Description: as §1

JVM-2 = assay: Anti-proliferative assay; type: cell-based; settings: Homo sapiens; JVM-2, Mantle cell lymphoma; 72 hours, CellTiter-Glo
Description: as §1

MOLM-13 = assay: Anti-proliferative assay; type: cell-based; settings: Homo sapiens; MOLM-13, AML-M5; 72 hours, CellTiter-Glo
Description: as §1

MEC-1 = assay: Anti-proliferative assay; type: cell-based; settings: Homo sapiens, MEC1; MEC-1, CLL; 72 hours, CellTiter-Glo
Description: as §1

MV4-11 = assay: Anti-proliferative assay; type: cell-based; settings: Homo sapiens; MV4-11, AML; 72 hours, CellTiter-Glo
Description: as §1

PF382 = assay: Anti-proliferative assay; type: cell-based; settings: Homo sapiens, PF-382; PF382, ALL; 72 hours, CellTiter-Glo
Description: as §1

OCI-AML-2 = assay: Anti-proliferative assay; type: cell-based; settings: Homo sapiens, OCI-AML2; OCI-AML-2, AML-M4; 72 hours, CellTiter-Glo
Description: as §1

NOMO-1 = assay: Anti-proliferative assay; type: cell-based; settings: Homo sapiens; NOMO-1, AML-M5; 72 hours, CellTiter-Glo
Description: as §1

U937 = assay: Anti-proliferative assay; type: cell-based; settings: Homo sapiens, U-937; U937, AML; 72 hours, CellTiter-Glo
Description: as §1

HL-60 = assay: Anti-proliferative assay; type: cell-based; settings: Homo sapiens; HL-60, AML-M2; 72 hours, CellTiter-Glo
Description: as §1

SKM-1 = assay: Anti-proliferative assay; type: cell-based; settings: Homo sapiens; SKM-1, AML-M5; 72 hours, CellTiter-Glo
Description: as §1

MEC-2 = assay: Anti-proliferative assay; type: cell-based; settings: Homo sapiens, MEC2; MEC-2, CLL; 72 hours, CellTiter-Glo
Description: as §1

NALM-6 = assay: Anti-proliferative assay; type: cell-based; settings: Homo sapiens, 72 hours, CellTiter-Glo
Description: as §1

Namalwa = assay: Anti-proliferative assay; type: cell-based; settings: Homo sapiens, Burrkit lymphoma, 72 hours, CellTiter-Glo
Description: as §1

Ramos(new) = assay: Anti-proliferative assay; type: cell-based; settings: Homo sapiens, Burrkit lymphoma, 72 hours, CellTiter-Glo
Description: as §1

HT = assay: Anti-proliferative assay; type: cell-based; settings: Homo sapiens, B-cell lymphoma, 72 hours, CellTiter-Glo
Description: as §1

Hs 505T = assay: Anti-proliferative assay; type: cell-based; settings: Homo sapiens, CLL, 72 hours, CellTiter-Glo
Description: as §1

MOLM-14 = assay: Anti-proliferative assay; type: cell-based; settings: Homo sapiens; MOLM-14, AML-M5; 72 hours, CellTiter-Glo
Description: as §1

OCI-AML-3 = assay: Anti-proliferative assay; type: cell-based; settings: Homo sapiens; OCI-AML-3, AML-M4; 72 hours, CellTiter-Glo
Description: as §1

HEL = assay: Anti-proliferative assay; type: cell-based; settings: Homo sapiens, AML-M6, 72 hours, CellTiter-Glo
Description: as §1

CDC2L2 = biological target: T1, CDC2L2 (Homo sapiens, UniProt Q9UQ88); assay: KinomeScan; type: binding; settings: 1uM
T1 construct: purchased DiscoveRx KINOMEscan

PIP5K2C = biological target: T2, PIP5K2C (Homo sapiens, UniProt Q8TBX8); assay: KinomeScan; type: binding; settings: 1uM
T2 construct: purchased DiscoveRx KINOMEscan

NEK10 = biological target: T3, NEK10 (Homo sapiens, UniProt Q6ZWH5); assay: KinomeScan; type: binding; settings: 1uM
T3 construct: purchased DiscoveRx KINOMEscan

MYLK4 = biological target: T4, MYLK4 (Homo sapiens, UniProt Q86YV6); assay: KinomeScan; type: binding; settings: 1uM
T4 construct: purchased DiscoveRx KINOMEscan
T4 sequence (Q86YV6 whole entry): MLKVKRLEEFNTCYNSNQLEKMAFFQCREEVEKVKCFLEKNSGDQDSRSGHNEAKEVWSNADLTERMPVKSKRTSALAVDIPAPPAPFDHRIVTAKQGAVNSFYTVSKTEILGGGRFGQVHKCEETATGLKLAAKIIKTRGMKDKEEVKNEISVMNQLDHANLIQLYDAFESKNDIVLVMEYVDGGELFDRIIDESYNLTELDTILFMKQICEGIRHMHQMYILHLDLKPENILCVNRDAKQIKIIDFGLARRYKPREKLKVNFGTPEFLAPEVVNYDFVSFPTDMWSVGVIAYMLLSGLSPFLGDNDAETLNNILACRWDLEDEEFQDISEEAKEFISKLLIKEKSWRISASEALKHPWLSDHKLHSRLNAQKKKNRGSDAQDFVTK

EPHB3 = biological target: T5, EPHB3 (Homo sapiens, UniProt P54753); assay: KinomeScan; type: binding; settings: 1uM
T5 construct: purchased DiscoveRx KINOMEscan

ULK1 = biological target: T6, ULK1 (Homo sapiens, UniProt O75385); assay: KinomeScan; type: binding; settings: 1uM
T6 construct: purchased DiscoveRx KINOMEscan
T6 sequence (O75385 whole entry): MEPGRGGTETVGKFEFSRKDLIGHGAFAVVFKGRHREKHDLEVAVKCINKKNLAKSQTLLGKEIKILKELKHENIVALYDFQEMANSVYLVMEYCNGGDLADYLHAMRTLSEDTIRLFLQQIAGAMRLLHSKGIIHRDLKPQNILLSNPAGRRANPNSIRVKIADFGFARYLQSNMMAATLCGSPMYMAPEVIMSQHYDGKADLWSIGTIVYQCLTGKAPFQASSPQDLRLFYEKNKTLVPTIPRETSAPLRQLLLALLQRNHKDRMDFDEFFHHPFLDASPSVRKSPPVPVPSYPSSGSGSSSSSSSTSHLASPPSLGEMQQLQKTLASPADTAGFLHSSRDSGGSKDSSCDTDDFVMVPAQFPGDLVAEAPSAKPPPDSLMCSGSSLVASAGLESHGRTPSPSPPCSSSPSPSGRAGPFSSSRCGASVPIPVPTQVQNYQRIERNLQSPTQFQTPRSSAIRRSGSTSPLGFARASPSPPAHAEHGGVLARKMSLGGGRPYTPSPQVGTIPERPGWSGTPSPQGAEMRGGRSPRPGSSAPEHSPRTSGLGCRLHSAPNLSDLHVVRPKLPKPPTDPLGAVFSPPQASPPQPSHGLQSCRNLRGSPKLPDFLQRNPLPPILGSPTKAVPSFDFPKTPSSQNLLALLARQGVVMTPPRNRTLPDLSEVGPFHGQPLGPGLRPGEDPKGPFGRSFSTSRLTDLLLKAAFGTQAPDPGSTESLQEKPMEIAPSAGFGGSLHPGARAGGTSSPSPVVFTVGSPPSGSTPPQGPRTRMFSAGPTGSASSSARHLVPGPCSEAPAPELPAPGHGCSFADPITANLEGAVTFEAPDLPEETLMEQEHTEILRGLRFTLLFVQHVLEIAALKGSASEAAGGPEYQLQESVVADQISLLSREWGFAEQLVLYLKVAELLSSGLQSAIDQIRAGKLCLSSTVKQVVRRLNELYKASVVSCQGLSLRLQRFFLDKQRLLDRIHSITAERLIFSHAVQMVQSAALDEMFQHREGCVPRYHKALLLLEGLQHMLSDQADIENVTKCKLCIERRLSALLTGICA

CSF1R = biological target: T7, CSF1R (Homo sapiens, UniProt P07333); assay: KinomeScan; type: binding; settings: 1uM
T7 construct: purchased DiscoveRx KINOMEscan

MERTK = biological target: T8, MERTK (Homo sapiens, UniProt Q12866); assay: KinomeScan; type: binding; settings: 1uM
T8 construct: purchased DiscoveRx KINOMEscan

AMPK-alpha2 = biological target: T9, AMPK-alpha2 (Homo sapiens, UniProt P54646); assay: KinomeScan; type: binding; settings: 1uM
T9 construct: purchased DiscoveRx KINOMEscan

SIK2 = biological target: T10, SIK2 (Homo sapiens, UniProt Q9H0K1); assay: KinomeScan; type: binding; settings: 1uM
T10 construct: purchased DiscoveRx KINOMEscan
T10 sequence (Q9H0K1 whole entry): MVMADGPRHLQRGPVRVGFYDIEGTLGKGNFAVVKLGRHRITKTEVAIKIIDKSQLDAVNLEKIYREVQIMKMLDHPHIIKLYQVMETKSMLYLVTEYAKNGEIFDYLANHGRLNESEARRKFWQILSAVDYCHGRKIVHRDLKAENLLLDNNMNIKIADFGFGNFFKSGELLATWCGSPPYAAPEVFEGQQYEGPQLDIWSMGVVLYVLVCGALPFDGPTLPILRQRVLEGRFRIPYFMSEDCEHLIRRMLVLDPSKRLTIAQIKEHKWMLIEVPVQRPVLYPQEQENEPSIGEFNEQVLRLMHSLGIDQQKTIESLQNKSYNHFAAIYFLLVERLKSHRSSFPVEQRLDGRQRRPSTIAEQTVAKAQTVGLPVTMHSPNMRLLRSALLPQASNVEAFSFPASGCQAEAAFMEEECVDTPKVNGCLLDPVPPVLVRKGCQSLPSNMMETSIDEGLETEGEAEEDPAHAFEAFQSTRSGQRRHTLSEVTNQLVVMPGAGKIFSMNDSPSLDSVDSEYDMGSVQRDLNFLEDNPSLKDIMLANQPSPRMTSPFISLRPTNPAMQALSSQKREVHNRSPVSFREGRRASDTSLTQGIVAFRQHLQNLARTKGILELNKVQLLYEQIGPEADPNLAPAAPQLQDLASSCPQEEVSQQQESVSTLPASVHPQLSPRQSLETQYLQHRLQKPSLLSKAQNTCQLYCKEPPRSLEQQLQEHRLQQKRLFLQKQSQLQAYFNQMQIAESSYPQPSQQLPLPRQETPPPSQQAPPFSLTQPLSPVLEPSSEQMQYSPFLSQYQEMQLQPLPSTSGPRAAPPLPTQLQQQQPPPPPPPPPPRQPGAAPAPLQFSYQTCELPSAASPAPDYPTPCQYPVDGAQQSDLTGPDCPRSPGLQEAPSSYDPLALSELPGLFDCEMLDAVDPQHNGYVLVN

MAP4K2 = biological target: T11, MAP4K2 (Homo sapiens, UniProt Q12851); assay: KinomeScan; type: binding; settings: 1uM
T11 construct: purchased DiscoveRx KINOMEscan

LKB1 = biological target: T12, LKB1 (Homo sapiens, UniProt Q15831); assay: KinomeScan; type: binding; settings: 1uM
T12 construct: purchased DiscoveRx KINOMEscan
T12 sequence (Q15831 whole entry): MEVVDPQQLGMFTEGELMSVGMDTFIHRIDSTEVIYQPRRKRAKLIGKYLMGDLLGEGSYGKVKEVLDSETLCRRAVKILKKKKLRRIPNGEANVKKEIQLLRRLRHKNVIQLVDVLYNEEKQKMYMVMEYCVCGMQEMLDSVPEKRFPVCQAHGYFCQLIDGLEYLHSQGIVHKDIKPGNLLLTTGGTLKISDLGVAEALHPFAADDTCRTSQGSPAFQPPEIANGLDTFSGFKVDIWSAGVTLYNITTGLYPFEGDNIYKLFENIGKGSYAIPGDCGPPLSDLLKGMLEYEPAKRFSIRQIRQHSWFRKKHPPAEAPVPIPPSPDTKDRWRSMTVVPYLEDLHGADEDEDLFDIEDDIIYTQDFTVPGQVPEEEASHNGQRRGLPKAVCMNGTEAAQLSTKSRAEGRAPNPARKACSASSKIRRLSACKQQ

LOK = biological target: T13, LOK (Homo sapiens, UniProt O94804); assay: KinomeScan; type: binding; settings: 1uM
T13 construct: purchased DiscoveRx KINOMEscan

KIT(V559D,T670I) = biological target: T14, KIT(V559D,T670I) (Homo sapiens, UniProt P10721, T670I/V559D); assay: KinomeScan; type: binding; settings: 1uM
T14 construct: purchased DiscoveRx KINOMEscan
T14 sequence (P10721 26-976 V559D/T670I): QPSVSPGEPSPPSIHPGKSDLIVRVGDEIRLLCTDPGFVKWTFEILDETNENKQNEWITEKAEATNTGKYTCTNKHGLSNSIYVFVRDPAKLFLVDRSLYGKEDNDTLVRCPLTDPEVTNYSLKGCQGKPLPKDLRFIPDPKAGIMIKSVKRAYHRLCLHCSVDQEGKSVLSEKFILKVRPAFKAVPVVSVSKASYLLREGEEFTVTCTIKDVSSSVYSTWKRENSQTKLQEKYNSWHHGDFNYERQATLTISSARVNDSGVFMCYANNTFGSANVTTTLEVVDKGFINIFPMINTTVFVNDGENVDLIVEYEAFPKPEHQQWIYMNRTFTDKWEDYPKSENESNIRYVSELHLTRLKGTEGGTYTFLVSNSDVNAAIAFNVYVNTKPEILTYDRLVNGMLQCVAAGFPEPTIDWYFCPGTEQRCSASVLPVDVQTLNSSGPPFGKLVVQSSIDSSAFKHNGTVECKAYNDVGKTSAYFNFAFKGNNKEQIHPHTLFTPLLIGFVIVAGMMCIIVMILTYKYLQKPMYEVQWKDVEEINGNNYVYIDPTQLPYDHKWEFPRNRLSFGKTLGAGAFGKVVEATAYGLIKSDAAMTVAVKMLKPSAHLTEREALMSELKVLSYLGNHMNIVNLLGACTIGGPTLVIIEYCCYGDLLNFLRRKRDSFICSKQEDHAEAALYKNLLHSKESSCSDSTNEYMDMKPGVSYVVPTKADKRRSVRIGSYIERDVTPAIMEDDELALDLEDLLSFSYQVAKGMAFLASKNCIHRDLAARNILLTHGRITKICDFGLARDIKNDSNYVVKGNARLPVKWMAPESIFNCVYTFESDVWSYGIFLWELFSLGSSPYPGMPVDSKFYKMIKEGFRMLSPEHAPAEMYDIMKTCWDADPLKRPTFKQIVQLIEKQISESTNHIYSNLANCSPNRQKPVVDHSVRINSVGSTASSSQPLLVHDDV

PI4KA = biological target: T15, PI4KA (Homo sapiens, UniProt P42356); assay: ADP-glo biochemical assay
T15 construct: purchased Invitrogen
Description: The reaction in each tube was started immediately by adding ATP and kept going for an hour under 37°C. After the tube cooled for 5 minutes at room temperature, 5 μL solvent reactions were carried out in a 384-well plate. Then 5 μL of ADP-Glo™ reagent was added into each well to stop the reaction and consume the remaining ADP within 40 minutes. At the end, 10 μL of kinase detection reagent was added into the well and incubated for 30 minutes to produce a luminescence signal. Luminescence signal was measured with an automated plate reader (Perkin-Elmer Envision) and each measurement was performed in triplicate.

VEGFR2 = biological target: T16, VEGFR2 (Homo sapiens, UniProt P35968); assay: KinomeScan; type: binding; settings: 1uM
T16 construct: purchased DiscoveRx KINOMEscan
T16 sequence (P35968 20-1356): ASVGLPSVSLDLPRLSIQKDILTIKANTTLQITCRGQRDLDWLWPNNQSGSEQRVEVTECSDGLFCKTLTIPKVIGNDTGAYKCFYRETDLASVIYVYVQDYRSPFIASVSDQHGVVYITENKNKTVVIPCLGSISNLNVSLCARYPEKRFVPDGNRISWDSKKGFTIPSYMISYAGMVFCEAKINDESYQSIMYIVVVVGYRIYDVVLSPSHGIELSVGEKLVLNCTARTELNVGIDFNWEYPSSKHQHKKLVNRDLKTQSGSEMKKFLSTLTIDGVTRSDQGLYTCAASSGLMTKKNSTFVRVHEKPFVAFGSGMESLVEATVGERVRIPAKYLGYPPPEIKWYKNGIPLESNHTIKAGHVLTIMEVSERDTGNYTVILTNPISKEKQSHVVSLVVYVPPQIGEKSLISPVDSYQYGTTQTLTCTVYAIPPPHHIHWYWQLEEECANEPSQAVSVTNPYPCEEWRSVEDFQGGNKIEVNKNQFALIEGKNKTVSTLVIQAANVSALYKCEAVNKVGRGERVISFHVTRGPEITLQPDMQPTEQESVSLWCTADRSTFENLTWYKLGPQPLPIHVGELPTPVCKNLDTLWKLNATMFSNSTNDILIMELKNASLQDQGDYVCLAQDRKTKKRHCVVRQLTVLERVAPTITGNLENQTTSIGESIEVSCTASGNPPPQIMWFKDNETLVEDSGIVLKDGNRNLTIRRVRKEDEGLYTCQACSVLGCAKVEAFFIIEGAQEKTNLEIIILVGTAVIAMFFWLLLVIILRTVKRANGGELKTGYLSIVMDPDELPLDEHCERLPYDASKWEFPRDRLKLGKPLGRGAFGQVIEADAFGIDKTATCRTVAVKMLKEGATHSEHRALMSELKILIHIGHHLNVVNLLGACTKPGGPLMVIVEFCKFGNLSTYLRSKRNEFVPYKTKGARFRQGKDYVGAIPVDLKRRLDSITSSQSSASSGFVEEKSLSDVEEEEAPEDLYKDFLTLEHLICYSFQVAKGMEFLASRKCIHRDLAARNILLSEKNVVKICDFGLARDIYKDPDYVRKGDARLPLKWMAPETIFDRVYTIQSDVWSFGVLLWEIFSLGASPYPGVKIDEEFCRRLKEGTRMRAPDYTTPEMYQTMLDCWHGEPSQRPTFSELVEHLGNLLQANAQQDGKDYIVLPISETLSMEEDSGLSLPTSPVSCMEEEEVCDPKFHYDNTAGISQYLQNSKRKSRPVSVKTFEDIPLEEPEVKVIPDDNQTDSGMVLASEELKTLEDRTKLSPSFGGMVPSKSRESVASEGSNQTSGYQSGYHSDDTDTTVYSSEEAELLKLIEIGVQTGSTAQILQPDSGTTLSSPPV

SMILES: Cc1nc(NC(=O)[C@@H](N)C(C)C)sc1-c1cnc(Cl)c(NS(=O)(=O)c2ccccc2)c1 [PI3KD-IN-015]
- GI50 (RPMI8226): 2500 nM
- GI50 (AMO-1): 1100 nM
- GI50 (JVM-2): > 10000 nM
- GI50 (MOLM-13): 940 nM
- GI50 (MEC-1): > 10000 nM
- GI50 (MV4-11): 1900 nM
- GI50 (PF382): 3200 nM
- GI50 (OCI-AML-2): 1800 nM
- GI50 (NOMO-1): 1400 nM
- GI50 (U937): 5100 nM
- GI50 (HL-60): 2300 nM
- GI50 (SKM-1): 2600 nM
- GI50 (MEC-2): > 10000 nM
- GI50 (NALM-6): 1800 nM
- GI50 (Namalwa): 1400 nM
- GI50 (Ramos(new)): 2000 nM
- GI50 (HT): 860 nM
- GI50 (Hs 505T): > 10000 nM
- GI50 (MOLM-14): 2200 nM
- GI50 (OCI-AML-3): 3100 nM
- GI50 (HEL): > 10000 nM
- KinomeScan CDC2L2 (CDC2L2): 100
- KinomeScan PIP5K2C (PIP5K2C): 90
- KinomeScan NEK10 (NEK10): 83
- KinomeScan MYLK4 (MYLK4): 80
- KinomeScan EPHB3 (EPHB3): 100
- KinomeScan ULK1 (ULK1): 74
- KinomeScan CSF1R (CSF1R): 67
- KinomeScan MERTK (MERTK): 96
- KinomeScan AMPK-alpha2 (AMPK-alpha2): 100
- KinomeScan SIK2 (SIK2): 95
- KinomeScan MAP4K2 (MAP4K2): 91
- KinomeScan LKB1 (LKB1): 79
- KinomeScan LOK (LOK): 99
- KinomeScan KIT(V559D,T670I) (KIT(V559D,T670I)): 90
- IC50 (PI4KA): > 10000 nM
- KinomeScan VEGFR2 (VEGFR2): 99
